Experimental data reported in PubChem BioAssay (NCI).
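Protocol summary: plate cells (96-well), add compound at 5 concentrations, incubate 48 h, interpolate endpoints linearly. TGI is the concentration that stops growth completely.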

What was measured:
Experiment in all cases: DTP human tumour cell line panel, 48 h
786-0 renal = test system: 786-0 renal
A498 renal = test system: A498 renal
A549 NSCLC = test system: A549 NSCLC
ACHN renal = test system: ACHN renal
BT-549 breast = test system: BT-549 breast
CAKI-1 renal = test system: CAKI-1 renal
CCRF-CEM leukemia = test system: CCRF-CEM leukemia
COLO 205 colon = test system: COLO 205 colon
DU-145 prostate = test system: DU-145 prostate
EKVX NSCLC = test system: EKVX NSCLC
HCC-2998 colon = test system: HCC-2998 colon
HCT-116 colon = test system: HCT-116 colon
HCT-15 colon = test system: HCT-15 colon
HL-60(TB) leukemia = test system: HL-60(TB) leukemia
HOP-62 NSCLC = test system: HOP-62 NSCLC
HOP-92 NSCLC = test system: HOP-92 NSCLC
HS 578T breast = test system: HS 578T breast
HT29 colon = test system: HT29 colon
IGROV1 ovarian = test system: IGROV1 ovarian
K-562 leukemia = test system: K-562 leukemia
KM12 colon = test system: KM12 colon
LOX IMVI melanoma = test system: LOX IMVI melanoma
M14 melanoma = test system: M14 melanoma
MALME-3M melanoma = test system: MALME-3M melanoma
MCF7 breast = test system: MCF7 breast
MDA-MB-231 breast = test system: MDA-MB-231 breast
MDA-MB-435 = test system: MDA-MB-435
MDA-N = test system: MDA-N
MOLT-4 leukemia = test system: MOLT-4 leukemia
NCI-H226 lung = test system: NCI-H226 lung
NCI-H23 lung = test system: NCI-H23 lung
NCI-H460 lung = test system: NCI-H460 lung
NCI-H522 lung = test system: NCI-H522 lung
NCI/ADR-RES ovarian = test system: NCI/ADR-RES ovarian
OVCAR-4 ovarian = test system: OVCAR-4 ovarian
OVCAR-5 ovarian = test system: OVCAR-5 ovarian
OVCAR-8 ovarian = test system: OVCAR-8 ovarian
PC-3 prostate = test system: PC-3 prostate
RPMI-8226 leukemia = test system: RPMI-8226 leukemia
RXF 393 renal = test system: RXF 393 renal
SF-295 CNS = test system: SF-295 CNS
SF-539 CNS = test system: SF-539 CNS
SK-MEL-2 melanoma = test system: SK-MEL-2 melanoma
SK-MEL-28 melanoma = test system: SK-MEL-28 melanoma
SK-MEL-5 melanoma = test system: SK-MEL-5 melanoma
SK-OV-3 ovarian = test system: SK-OV-3 ovarian
SN12C renal = test system: SN12C renal
SNB-19 CNS = test system: SNB-19 CNS
SNB-75 CNS = test system: SNB-75 CNS
SR leukemia = test system: SR leukemia
SW-620 colon = test system: SW-620 colon
T-47D breast = test system: T-47D breast
TK-10 renal = test system: TK-10 renal
U251 CNS = test system: U251 CNS
UACC-257 melanoma = test system: UACC-257 melanoma
UACC-62 melanoma = test system: UACC-62 melanoma
UO-31 renal = test system: UO-31 renal
OVCAR-3 ovarian = test system: OVCAR-3 ovarian
SF-268 CNS = test system: SF-268 CNS

Q: `O=[N+]([O-])c1ccc(/C(=C\c2ccccc2)Cn2ccnc2)cc1` was tested. Which TGI (786-0 renal) did it give?
A: > 100 µM

Q: And the TGI (A498 renal)?
A: 72 µM

Q: What about the TGI (A549 NSCLC) of the same compound?
A: > 100 µM

Q: What about the TGI (ACHN renal) of the same compound?
A: > 100 µM

Q: And the TGI (BT-549 breast)?
A: 87.8 µM

Q: What about the TGI (CAKI-1 renal) of the same compound?
A: 45.6 µM

Q: What about the TGI (CCRF-CEM leukemia) of the same compound?
A: > 100 µM

Q: And the TGI (COLO 205 colon)?
A: 30 µM

Q: And the TGI (DU-145 prostate)?
A: > 100 µM

Q: And the TGI (EKVX NSCLC)?
A: > 100 µM

Q: And the TGI (HCC-2998 colon)?
A: > 100 µM

Q: And the TGI (HCT-116 colon)?
A: > 100 µM

Q: And the TGI (HCT-15 colon)?
A: > 100 µM

Q: What about the TGI (HL-60(TB) leukemia) of the same compound?
A: 46.4 µM

Q: What about the TGI (HOP-62 NSCLC) of the same compound?
A: > 100 µM

Q: And the TGI (HOP-92 NSCLC)?
A: 79.9 µM

Q: What about the TGI (HS 578T breast) of the same compound?
A: 69.9 µM

Q: What about the TGI (HT29 colon) of the same compound?
A: 67.1 µM

Q: What about the TGI (IGROV1 ovarian) of the same compound?
A: > 100 µM

Q: And the TGI (K-562 leukemia)?
A: 69.2 µM

Q: What about the TGI (KM12 colon) of the same compound?
A: > 100 µM

Q: And the TGI (LOX IMVI melanoma)?
A: 54.1 µM

Q: And the TGI (M14 melanoma)?
A: > 100 µM

Q: What about the TGI (MALME-3M melanoma) of the same compound?
A: > 100 µM

Q: And the TGI (MCF7 breast)?
A: > 100 µM

Q: And the TGI (MDA-MB-231 breast)?
A: 87.8 µM

Q: And the TGI (MDA-MB-435)?
A: > 100 µM

Q: And the TGI (MDA-N)?
A: 75.1 µM

Q: What about the TGI (MOLT-4 leukemia) of the same compound?
A: > 100 µM

Q: What about the TGI (NCI-H226 lung) of the same compound?
A: > 100 µM

Q: And the TGI (NCI-H23 lung)?
A: > 100 µM

Q: And the TGI (NCI-H460 lung)?
A: > 100 µM

Q: And the TGI (NCI-H522 lung)?
A: 57.8 µM

Q: What about the TGI (NCI/ADR-RES ovarian) of the same compound?
A: 66 µM

Q: What about the TGI (OVCAR-4 ovarian) of the same compound?
A: > 100 µM

Q: And the TGI (OVCAR-5 ovarian)?
A: > 100 µM

Q: What about the TGI (OVCAR-8 ovarian) of the same compound?
A: > 100 µM

Q: What about the TGI (PC-3 prostate) of the same compound?
A: 95.7 µM

Q: And the TGI (RPMI-8226 leukemia)?
A: > 100 µM

Q: And the TGI (RXF 393 renal)?
A: > 100 µM

Q: What about the TGI (SF-295 CNS) of the same compound?
A: > 100 µM

Q: What about the TGI (SF-539 CNS) of the same compound?
A: > 100 µM

Q: And the TGI (SK-MEL-2 melanoma)?
A: 61.1 µM

Q: And the TGI (SK-MEL-28 melanoma)?
A: > 100 µM

Q: And the TGI (SK-MEL-5 melanoma)?
A: 94.4 µM

Q: What about the TGI (SK-OV-3 ovarian) of the same compound?
A: > 100 µM

Q: What about the TGI (SN12C renal) of the same compound?
A: > 100 µM

Q: And the TGI (SNB-19 CNS)?
A: > 100 µM

Q: What about the TGI (SNB-75 CNS) of the same compound?
A: 86.4 µM

Q: What about the TGI (SR leukemia) of the same compound?
A: > 100 µM

Q: What about the TGI (SW-620 colon) of the same compound?
A: > 100 µM

Q: And the TGI (T-47D breast)?
A: > 100 µM

Q: What about the TGI (TK-10 renal) of the same compound?
A: > 100 µM

Q: And the TGI (U251 CNS)?
A: > 100 µM

Q: And the TGI (UACC-257 melanoma)?
A: > 100 µM

Q: And the TGI (UACC-62 melanoma)?
A: > 100 µM

Q: What about the TGI (UO-31 renal) of the same compound?
A: > 100 µM

Q: `C=C[C@@]1(C)CC2(C=C(CO)C(O)O2)Oc2c1c(=O)oc1cccc(C)c21` (stereo partly specified) was tested. Which TGI (786-0 renal) did it give?
A: 3.8 µM

Q: And the TGI (A498 renal)?
A: 51.8 µM

Q: What about the TGI (A549 NSCLC) of the same compound?
A: 68.7 µM

Q: What about the TGI (ACHN renal) of the same compound?
A: 21.2 µM

Q: And the TGI (BT-549 breast)?
A: 14.2 µM

Q: What about the TGI (CAKI-1 renal) of the same compound?
A: 15.6 µM

Q: What about the TGI (CCRF-CEM leukemia) of the same compound?
A: 7.98 µM

Q: What about the TGI (COLO 205 colon) of the same compound?
A: 26.9 µM

Q: What about the TGI (DU-145 prostate) of the same compound?
A: 29.1 µM

Q: What about the TGI (EKVX NSCLC) of the same compound?
A: 35.2 µM

Q: What about the TGI (HCC-2998 colon) of the same compound?
A: 40.1 µM

Q: And the TGI (HCT-116 colon)?
A: 3.65 µM

Q: And the TGI (HCT-15 colon)?
A: 7.17 µM

Q: And the TGI (HL-60(TB) leukemia)?
A: 5.12 µM

Q: And the TGI (HOP-62 NSCLC)?
A: 33.8 µM

Q: What about the TGI (HOP-92 NSCLC) of the same compound?
A: 40.2 µM

Q: What about the TGI (HS 578T breast) of the same compound?
A: 42.9 µM

Q: And the TGI (HT29 colon)?
A: 21.9 µM

Q: What about the TGI (IGROV1 ovarian) of the same compound?
A: 18.4 µM

Q: What about the TGI (K-562 leukemia) of the same compound?
A: 7.46 µM

Q: And the TGI (KM12 colon)?
A: 33.9 µM

Q: And the TGI (LOX IMVI melanoma)?
A: 13.7 µM

Q: And the TGI (M14 melanoma)?
A: 12.1 µM

Q: And the TGI (MALME-3M melanoma)?
A: 26.7 µM

Q: What about the TGI (MCF7 breast) of the same compound?
A: 25.1 µM

Q: What about the TGI (MDA-MB-231 breast) of the same compound?
A: 23.9 µM

Q: And the TGI (MDA-MB-435)?
A: 10.3 µM

Q: And the TGI (MDA-N)?
A: 15.2 µM

Q: What about the TGI (MOLT-4 leukemia) of the same compound?
A: 5.78 µM

Q: And the TGI (NCI-H226 lung)?
A: 35.5 µM

Q: What about the TGI (NCI-H23 lung) of the same compound?
A: 21.3 µM

Q: And the TGI (NCI-H460 lung)?
A: 45.2 µM

Q: What about the TGI (NCI-H522 lung) of the same compound?
A: 4.82 µM

Q: And the TGI (NCI/ADR-RES ovarian)?
A: 10.2 µM

Q: What about the TGI (OVCAR-3 ovarian) of the same compound?
A: 9.66 µM

Q: And the TGI (OVCAR-4 ovarian)?
A: 12.8 µM

Q: And the TGI (OVCAR-5 ovarian)?
A: 36 µM

Q: And the TGI (OVCAR-8 ovarian)?
A: 9.72 µM

Q: What about the TGI (PC-3 prostate) of the same compound?
A: 32.7 µM

Q: And the TGI (RPMI-8226 leukemia)?
A: 3.82 µM

Q: And the TGI (RXF 393 renal)?
A: 8.86 µM

Q: And the TGI (SF-268 CNS)?
A: 12.2 µM

Q: And the TGI (SF-295 CNS)?
A: > 75.1 µM

Q: What about the TGI (SF-539 CNS) of the same compound?
A: 12 µM

Q: What about the TGI (SK-MEL-2 melanoma) of the same compound?
A: 21.7 µM

Q: And the TGI (SK-MEL-28 melanoma)?
A: 25.5 µM

Q: And the TGI (SK-MEL-5 melanoma)?
A: 25.3 µM

Q: What about the TGI (SK-OV-3 ovarian) of the same compound?
A: 47.3 µM

Q: And the TGI (SN12C renal)?
A: 15.9 µM

Q: What about the TGI (SNB-19 CNS) of the same compound?
A: 33.2 µM

Q: What about the TGI (SNB-75 CNS) of the same compound?
A: 28.8 µM

Q: And the TGI (SR leukemia)?
A: 7.75 µM

Q: What about the TGI (SW-620 colon) of the same compound?
A: 3.74 µM

Q: And the TGI (T-47D breast)?
A: 44.6 µM

Q: What about the TGI (TK-10 renal) of the same compound?
A: 43.5 µM

Q: What about the TGI (U251 CNS) of the same compound?
A: 25.6 µM

Q: And the TGI (UACC-257 melanoma)?
A: 35 µM

Q: And the TGI (UACC-62 melanoma)?
A: 23.1 µM

Q: And the TGI (UO-31 renal)?
A: 19 µM
